Experimental data as given in patent EP0281245B1, “Cytochrome P-450 enzymes” (Sankyo Company Limited, priority 1987, dated 1988).
Counter-ions that a name gives are not always drawn. Like-named read-outs stand apart in the source and are kept apart here.

Key:
Assay in all cases: Effect of potential inhibitors and metallic ions on rate of formation of pravastatin sodium from sodium ML-236B carboxylate (method ii)
P-450sca-3 = format: biochemical, Streptomyces carbophilus
Description: (§1) (ii) Measurement of rate of formation of pravastatin sodium from sodium ML-236B carboxylate
(§2) The following cocktail of components is employed:
(§3) The components of the Table are mixed, the solution is shaken at 30°C for 5 minutes, and then 10 »l of 6 N NaOH is added and the reaction stopped. The amount of pravastatin sodium formed by the enzyme system is determined with HPLC.
(§4) The effects of potential inhibitors against cytochrome P-450sca-1 P-450sca-2, P-450sca-3 and the effects of metallic ions on the action of the cytochrome P-450 can be assessed quantitatively using the method (ii).

P-450sca-2 = target: T1, P-450sca-2 (Streptomyces carbophilus, UniProt Q59831); format: biochemical; settings: for remaining activity at 2000 µM: read-out: Residual activity of enzyme P-450sca-2
T1 construct: made in house; host or cells: Streptomyces carbophilus SANK 62585 (FERM BP-1145), native producer, not recombinant
T1 sequence (Q59831 1-410): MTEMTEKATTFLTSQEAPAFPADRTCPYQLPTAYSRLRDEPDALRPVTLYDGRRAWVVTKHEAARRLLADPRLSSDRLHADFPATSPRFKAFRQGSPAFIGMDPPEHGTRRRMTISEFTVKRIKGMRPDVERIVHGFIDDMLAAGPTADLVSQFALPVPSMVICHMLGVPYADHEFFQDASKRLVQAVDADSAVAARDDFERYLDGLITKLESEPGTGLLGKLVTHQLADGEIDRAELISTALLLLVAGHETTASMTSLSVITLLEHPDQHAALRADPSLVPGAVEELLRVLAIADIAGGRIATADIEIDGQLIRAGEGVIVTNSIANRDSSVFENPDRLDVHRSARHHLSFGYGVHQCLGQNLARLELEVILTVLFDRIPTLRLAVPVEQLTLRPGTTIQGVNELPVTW
Description: as §1, §2, §3, §4

cytochrome P-450sca-1 = format: biochemical, Streptomyces carbophilus; settings: for Residual activity of enzyme P-450sca-1: 5 min; for inhibition of cytochrome (in words): each cytochrome
Description: as §2, §3, §4

Row | SMILES | Residual activity of enzyme P-450sca-3 (P-450sca-3; 1 mM added compound) [%] | inhibition of cytochrome (in words) (P-450sca-3; each cytochrome) | Residual activity of enzyme P-450sca-2 (P-450sca-2; 1 mM added compound) [%] | inhibition of cytochrome (in words) (P-450sca-2; each cytochrome) | Residual activity of enzyme P-450sca-1 (cytochrome P-450sca-1; 1 mM added compound) [%] | inhibition of cytochrome (in words) (cytochrome P-450sca-1) | other results
1 | [Cl][Mn][Cl] [MnCl₂] | 17.5 | inhibited | 18.7 | inhibited | 20.0 | inhibited | –
2 | CCCC(C(=O)OCCN(CC)CC)(c1ccccc1)c1ccccc1 [SKF-525A, 2-diethylaminoethyl-2,2-diphenyl valerate hydrochloride] | – | inhibited | – | inhibited | – | inhibited | Residual activity of enzyme P-450sca-3 (P-450sca-3; 2 mM added compound): 24.1%; remaining activity at 2000 µM (P-450sca-2; 2 mM added compound): 22.8%; Residual activity of enzyme P-450sca-1 (cytochrome P-450sca-1; 2 mM added compound): 25.8%
3 | [Cl-].[Cl-].[Co+2] [CoCl₂] | 60.1 | inhibited | 67.5 | inhibited | 65.0 | inhibited | –
4 | CN/C(=N/CCSCc1nc[nH]c1C)NC#N [Cimetidine] | – | – | – | – | – | inhibited | inhibition of cytochrome (in words) (P-450sca-3): inhibited; Residual activity of enzyme P-450sca-3 (P-450sca-3; 2000 µM): 43.8%; inhibition of cytochrome (in words) (P-450sca-2): inhibited; remaining activity at 2000 µM (P-450sca-2): 45.7%; Residual activity of enzyme P-450sca-1 (cytochrome P-450sca-1; 2 mM added compound): 58.7%
5 | [C-]#[O+] [CO, carbon monoxide] | – | inhibited | – | inhibited | – | inhibited | Residual activity of enzyme P-450sca-3 (P-450sca-3; CO bubbled in for 1 minute): 60.4%; Residual activity of enzyme P-450sca-2 (P-450sca-2; CO bubbled in for 1 minute): 55.0%; Residual activity of enzyme P-450sca-1 (cytochrome P-450sca-1; CO bubbled in for 1 minute): 50.0%
6 | [Ca+2].[Cl-].[Cl-] [CaCl₂] | 100.0 | – | 100.0 | – | 100.0 | – | –
7 | [Cl][Cu][Cl] [CuCl₂] | 0 | inhibited | 0 | inhibited | 0 | inhibited | –
